According to publication PMC9401487 (Clinical Cancer Research, 2021):
Read-outs that look alike come from different tables or passages of the source.

Legend:
[1] = tested on: advanced solid tumors; experiment: Preliminary antitumor activity, tumor response by RECIST v1.1; assay type: in vivo, human
[2] = Clinical plasma pharmacokinetics of ceralasertib; assay type: in vivo; settings: human, oral
[3] = tested on: pRAD50; experiment: pRAD50 IHC H-score in paired tumor biopsies; assay type: in vivo, human
[4] = tested on: ATR; settings: read-out: IC90 for ATR inhibition in cells; cited from earlier work
[5] = tested on: TP53-mutant triple-negative breast cancer PDX; settings: cited from earlier work

For `C[C@@H]1COCCN1c1cc(C2([S@](C)(=N)=O)CC2)nc(-c2cc[nH]c3nccc2-3)n1` [ceralasertib], the “Best response of progressive disease, patients” value ([1]; 12 of 34 response-evaluable patients) was 35%, the “Best RECIST v1.1 response of stable disease (≥35 days), patients” value ([1]; 18 of 34 response-evaluable patients, including the two unconfirmed PRs) was 53% and the “Unconfirmed RECIST v1.1 PRs” value ([1]; evaluable-for-response set n=34, 1 in cohort 3, 1 in cohort 7) was 2 patients. For the same molecule, the “Confirmed RECIST v1.1 partial responses” value ([1]; evaluable-for-response set n=34, both in cohort 6) was 2 patients, the “Tumor reduction (unconfirmed response)” value ([1]; one patient, cohort 7, clear cell ovarian cancer, two cycles) was 43% and the half-life ([2]; mean half-life, administered alone) was 8.14 to 10.6 h. It also gave a half-life ([2]; mean half-life, in combination with carboplatin) of 5.14 to 7.22 h, a Tmax ([2]; median tmax, in combination with carboplatin) of 1.05 to 1.07 h and a Tmax ([2]; median tmax, single dose, alone, across dose groups) of 1 to 1.03 h. For the same molecule, the half-life ([2]; terminal plasma half-life, abstract summary) was 8 to 11 h, the Tmax ([2]; tmax, abstract summary) was roughly 1 h and the “pRAD50 expression following treatment” value ([3]; all four evaluable paired tumor biopsies) was “clear increases in pRAD50 expression”. For the same molecule, the “Increase in pRAD50 expression” value ([3]; cohort 7 patient, baseline ATM 20%, H-scores of 20–80) was 400%, the IC90 [4] was […] and the Tumor control ([5]; carboplatin dosed concurrently with ceralasertib on day 2 or 3) was “growth inhibition rather than tumor control”. For the same molecule, the Antitumor efficacy ([5]; ceralasertib dosed 2 days after carboplatin) was “tumor control” and the Antitumor efficacy ([5]; ceralasertib dosed 3 days after carboplatin) was “tumor regression”.
